Patent US20230255970A1, “COMPOSITIONS AND METHODS FOR TREATING PROLIFERATIVE DISEASES” (The Broad Institute, Inc., priority 2020, published 2023)
“Also recorded” adds a separate entry of the source.

System: mouse sarcoma cells
Assay: qRT-PCR of Yap1/NF-κB target genes in mouse sarcoma cells
Format: cell-based
Conditions: normalized to Hprt, Sdha, timecourse
Protocol: Mouse sarcoma cells were treated with 1 μM of compound for 48 h. RNA was isolated and qRT-PCR was performed for known NF-κB targets and proliferation-associated targets (i.e., Ki67, FOXM1). Target genes used to assess NF-κB inhibition specific to the cancer contexts are evaluated. For example, to test the efficacy of these compounds against NF-κB transcriptional activity in […] cells, expression of PHLDA1, IER2, and LITAF is determined. Compounds that alter expression of NF-κB target genes are assessed in proliferation studies using UPS, head and neck, prostate, and breast cancer cell lines previously associated with NF-κB dependence. IC50 studies and Western blot analyses are performed to evaluate total or phosphorylated p65 levels. Small molecules are then assessed to determine their mechanism of action. […] FIGS. 4-6 provide timecourse graphs showing the relative expression normalized to housekeeping genes.

## c1ccc(CNc2ncnc3ccccc23)cc1 [BRD-K43796186, N-benzylquinazolin-4-amine]
  Ccl2 expression: significantly decreased
  Foxm1 expression: reduced
Listed as NB4A
  Yap1 gene expression: not affected; also recorded: not effected
